Laboratory results taken from patent publication US4310533A, “Guanidinobenzoic acid derivatives” (Ono Pharmaceutical Co., Ltd., priority 1979, dated 1982).
Counter-ions that a name gives are not always drawn.

Experiments:
[1] = target: T1, plasmin (Homo sapiens, UniProt P00747); assay: Inhibitory activity on plasmin in vitro (euglobulin/streptokinase/fibrinogen system); assay type: biochemical; conditions: human euglobulin, streptokinase, fibrinogen, borate saline buffer pH 7.4, 37° C., 30 minutes; read-out: 50% Inhibition Concentration (molar concentration), Anti-Plasmin
T1 construct: from tissue; host or cells: human euglobulin (plasma fraction), with streptokinase added
Method: ^(2) The concentration of the compounds represented by the general
formula (I) at which the activity of plasmin was 50% inhibited, when
reacted in a system comprising 0.1 ml of humaneuglobulin (10 fold
dilution), 0.1 ml of streptokinase (2,000 unit/ml), 0.4 ml of fibrinogen
(4% solution), 0.3 ml of a 0.1M borate saline buffer solution (pH 7.4) an
0.1 ml of a solution of each of the compounds at 37° C. for 30

[2] = Solubility in water; assay type: physicochemical
[3] = target: T2, trypsin (Bos taurus, UniProt P00760); assay: Inhibitory activity on trypsin in vitro (hydrolysis of p-tosylarginine methyl ester); assay type: biochemical; conditions: trypsin 0.5 μg, 37° C., 30 minutes, read-out: 50% Inhibition Concentration (molar concentration), Anti-Trypsin
T2 sequence (P00760 24-246): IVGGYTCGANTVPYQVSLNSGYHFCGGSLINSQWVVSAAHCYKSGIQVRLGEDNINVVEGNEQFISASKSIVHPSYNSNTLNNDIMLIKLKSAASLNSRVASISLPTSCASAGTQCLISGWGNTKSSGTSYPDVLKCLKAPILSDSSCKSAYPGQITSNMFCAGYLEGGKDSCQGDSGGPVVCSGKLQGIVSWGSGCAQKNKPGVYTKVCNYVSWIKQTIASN
Method: The inhibitory activities on trypsin and plasmin in vitro were determined by the methods of M. Muramatsu et al. described in the Journal of Biochemistry, 58, 214 (1965) for trypsin, and ibid., 57, 402 (1964) for plasmin, and the results are shown in Table 1
^(1) The concentration of the compounds represented by the general
formula (I) at which the activity of trypsin 0.5 μg to hydrolyze
ptosylarginine methyl ester was 50% inhibited, when treated at 37°

[4] = system: plasmin; conditions: prior art; cited from earlier work

T1 sequence (P00747 581-810 limits assumed): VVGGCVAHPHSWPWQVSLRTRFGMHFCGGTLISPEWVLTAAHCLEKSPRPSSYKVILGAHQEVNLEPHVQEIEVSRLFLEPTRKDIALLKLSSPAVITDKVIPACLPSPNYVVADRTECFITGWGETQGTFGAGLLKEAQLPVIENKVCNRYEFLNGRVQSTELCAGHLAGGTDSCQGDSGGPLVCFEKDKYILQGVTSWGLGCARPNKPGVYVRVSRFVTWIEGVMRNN
T1 sequence (P00747 97-580 limits assumed): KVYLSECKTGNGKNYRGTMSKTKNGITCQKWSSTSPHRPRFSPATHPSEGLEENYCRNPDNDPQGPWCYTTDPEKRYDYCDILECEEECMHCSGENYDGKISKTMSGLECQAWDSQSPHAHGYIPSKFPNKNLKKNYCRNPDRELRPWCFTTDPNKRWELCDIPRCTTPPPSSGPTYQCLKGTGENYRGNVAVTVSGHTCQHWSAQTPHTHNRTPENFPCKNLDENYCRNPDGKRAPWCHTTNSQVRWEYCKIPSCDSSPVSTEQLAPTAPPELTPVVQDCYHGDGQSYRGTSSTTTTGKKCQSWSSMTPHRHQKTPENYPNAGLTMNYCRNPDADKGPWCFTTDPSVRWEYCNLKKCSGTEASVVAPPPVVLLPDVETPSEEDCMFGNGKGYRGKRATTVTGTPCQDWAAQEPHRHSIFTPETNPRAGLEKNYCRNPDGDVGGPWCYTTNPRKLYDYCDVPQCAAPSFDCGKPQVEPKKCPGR

| Structure (SMILES) | IC50 [1] | solubility [2] | IC50 [3] | anti-plasmin activity (in words) [4] |
| --- | --- | --- | --- | --- |
| CS(=O)(=O)O.N=C(N)Nc1ccc(C(=O)Oc2ccc(C(=O)OCC(=O)N3CCCCC3)cc2)cc1 [Compound No. 1, piperidinocarbonylmethyl 4-(4-guanidinobenzoyloxy)benzoate mesylate] | 0.45 nM | 20 mM | 0.5 nM | – |
| N=C(N)Nc1ccc(C(=O)Oc2ccc(C(=O)OCC(=O)NC3CCCCC3)cc2)cc1 [Compound No. 2, N-cyclohexylcarbamoylmethyl 4-(4-guanidinobenzoyloxy)benzoate mesylate] | 0.13 nM | 20 mM | 0.18 nM | – |
| NC[C@H]1CC[C@H](C(=O)O)CC1 [Compound No. 3, trans-4-aminomethylcyclohexanecarboxylic acid] | – | – | – | relatively low activities |
